Tests used:
Test in all cases: cells
Parameters in all cases: Anti-proliferation, 10-point dose response, CellTiter-Glo luminescence (MTT stated for KM12(Luc)), GI50 fitted in Prism
J82 = conditions: Homo sapiens, J82, 72 h, read-out: GI50 (µM) a
Protocol: (§1) To obtain the GI50 value of a substance, cell viability was measured using MTT (G4000, Promega, USA) for KM12(Luc) cell and Cell titer glo (G7572, Promega, USA) for other cell lines. For adherent cells, cells were seeded at 5,000 cells/well in a 96-well plate and treated with a substance one day after cell seeding. For suspension cells, 10,000 cells/well were seeded and the substance was treated after 4 h stabilization of cells. The substance was treated at 10 points of 1:3 serial dilution (0–100 µmol/L) for 72 h. For MTT assay, 15 µL dye solution was added to each well and incubated 4 h at 37°C. 100 µL of solubilization solution was added and followed 1 hr incubation. Absorbance at 570 nm of each well was recorded using EnVision microplate reader (Perkin Elmer). For Cell titer glo assay, Cell titer glo reagent was treated in each well and measured the luminescence by EnVision microplate reader (Perkin Elmer). Viable cells in each well were normalized by using 0.5% DMSO-treated wells (100%). The inhibitor dose−response curve was fitted and GI50 values were calculated using Prism 7.0 software (GraphPad). All assays were performed in duplicate and the standard deviation (SD) was determined from two independent experiments. KM12(Luc) was purchased from the JCRB cell bank. KM12 (Luc) was used within 6 months after purchase and the DNA profiles were confirmed using a short tandem repeat (STR) analysis by the Korean Cell Line Bank. KM12(Luc) cells were maintained in DMEM supplemented with 10% FBS and antibiotics. Parental Ba/F3 cells were purchased from DSMZ and were grown in RPMI1640 supplemented with 10% FBS and antibiotics in the presence of IL3, Transformed Ba/F3 cell lines were grown in the same media without IL3. Cells used in this study were negative for mycoplasma contamination. AN3-CA, HEC1A, U138, 8505C, MKN28, MKN45, A172, A375, Capan-1 HeLa, HEP3B, MCF-7 and MIA-paca-2 cells were maintained in DMEM (Welgene, Korea) supplemented with 10% FBS and antibiotics (Welgene, Korea). Otherwise, all cells were maintained in RPMI (Welgene, Korea) supplemented with 10% FBS and antibiotics (Welgene, Korea). To identify AZD4547 sensitive cell lines other than FGFR-mutant driven cancer cells, GI50 values were determined for AZD4547 against 64 different cancer cell lines, including AN3-CA used as a positive control ( Figure 1A and Table S1 ). […] Also, inhibitory activity of AZD4547 against DDR1 or FLT3 allows suppression of proliferation of U-2-OS and MV4-11 ([43]). Therefore, our attention focused on the inhibitory activity of AZD4547 against KM12(Luc) cell lines which have the TPM3-NTRK1 fusion gene. To exclude the possibility that the anti-proliferation activity of AZD4547 against KM12(Luc) is a common characteristic of FGFR inhibitors, we determined if BGJ398, a representative FGFR inhibitor, is also capable of suppressing proliferation of KM12(Luc) cells ( Figure 1B ).

GIST-T1 = conditions: Homo sapiens, GISTT1, 72 h, read-out: GI50 (µM) a
Protocol: as §1

RT-112 = conditions: Homo sapiens, RT-112, 72 h, read-out: GI50 (µM) a
Protocol: as §1

A375 = conditions: Homo sapiens, A-375, 72 h, read-out: GI50 (µM) a
Protocol: as §1

A172 = conditions: Homo sapiens, A 172, 72 h, read-out: GI50 (µM) a
Protocol: as §1

T98G = conditions: Homo sapiens, T98G, 72 h, read-out: GI50 (µM) a
Protocol: as §1

MKN28 = conditions: Homo sapiens, MKN-28, 72 h, read-out: GI50 (µM) a
Protocol: as §1

NCI-H1299 = conditions: Homo sapiens, NCI-H1299, 72 h, read-out: GI50 (µM) a
Protocol: as §1

UMUC3 = conditions: Homo sapiens, UMUC3, 72 h, read-out: GI50 (µM) a
Protocol: as §1

KG-1 = conditions: Homo sapiens, KG-1, 72 h, read-out: GI50 (µM) a
Protocol: as §1

KM12-Luc = conditions: KM12-Luc, 72 h, read-out: GI50 (µM) a
Protocol: as §1

NCI-H23 = conditions: Homo sapiens, NCI-H23, 72 h, read-out: GI50 (µM) a
Protocol: as §1

Structure (SMILES): COc1cc(CCc2cc(NC(=O)c3ccc(N4C[C@@H](C)N[C@@H](C)C4)cc3)n[nH]2)cc(OC)c1 [AZD4547]
- GI50 (J82): 9.54 µM
- GI50 (GIST-T1): 1.09 µM
- GI50 (RT-112): 0.42 µM
- GI50 (A375): 11.4 µM
- GI50 (A172): 2.18 µM
- GI50 (T98G): 5.21 µM
- GI50 (MKN28): 10.9 µM
- GI50 (NCI-H1299): 60.6 µM
- GI50 (UMUC3): 46.3 µM
- GI50 (KG-1): 6.27 µM
- GI50 (KM12-Luc): 0.11 µM
- GI50 (NCI-H23): 10.8 µM

Reference: paper PMC8591201, “Anti-Tumor Activity of AZD4547 Against NTRK1 Fusion Positive Cancer Cells Through Inhibition of NTRKs” (Frontiers in Oncology, 2021)
